Experimental data from PubChem BioAssay (NCI).
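Five compound concentrations were applied to cells in 96-well plates for 48 hours; endpoints were derived by simple linear interpolation of the resulting dose-response curve. Abbreviation: GI50, concentration required for 50% inhibition of growth. Definition used: TGI = concentration required for complete inhibition of growth.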

Assays:
Assay in all cases: NCI tumour cell line growth inhibition, 48 h
DU-145 prostate = system: DU-145 prostate
M14 melanoma = system: M14 melanoma
EKVX NSCLC = system: EKVX NSCLC
UACC-62 melanoma = system: UACC-62 melanoma
SK-MEL-5 melanoma = system: SK-MEL-5 melanoma
SNB-75 CNS = system: SNB-75 CNS
SW-620 colon = system: SW-620 colon
MOLT-4 leukemia = system: MOLT-4 leukemia
MDA-MB-231 breast = system: MDA-MB-231 breast
ACHN renal = system: ACHN renal
SK-MEL-2 melanoma = system: SK-MEL-2 melanoma
K-562 leukemia = system: K-562 leukemia
T-47D breast = system: T-47D breast
COLO 205 colon = system: COLO 205 colon
A549 NSCLC = system: A549 NSCLC
NCI-H522 lung = system: NCI-H522 lung
UO-31 renal = system: UO-31 renal
A498 renal = system: A498 renal
SF-268 CNS = system: SF-268 CNS
OVCAR-3 ovarian = system: OVCAR-3 ovarian
BT-549 breast = system: BT-549 breast
MDA-MB-435 = system: MDA-MB-435
OVCAR-5 ovarian = system: OVCAR-5 ovarian
NCI-H460 lung = system: NCI-H460 lung
NCI-H226 lung = system: NCI-H226 lung
KM12 colon = system: KM12 colon
CAKI-1 renal = system: CAKI-1 renal
HOP-92 NSCLC = system: HOP-92 NSCLC
LOX IMVI melanoma = system: LOX IMVI melanoma
SNB-19 CNS = system: SNB-19 CNS
SK-OV-3 ovarian = system: SK-OV-3 ovarian
PC-3 prostate = system: PC-3 prostate
786-0 renal = system: 786-0 renal
HCT-15 colon = system: HCT-15 colon
NCI/ADR-RES ovarian = system: NCI/ADR-RES ovarian
SR leukemia = system: SR leukemia
HT29 colon = system: HT29 colon
SN12C renal = system: SN12C renal
MALME-3M melanoma = system: MALME-3M melanoma
SK-MEL-28 melanoma = system: SK-MEL-28 melanoma
SF-295 CNS = system: SF-295 CNS
RXF 393 renal = system: RXF 393 renal
RPMI-8226 leukemia = system: RPMI-8226 leukemia
U251 CNS = system: U251 CNS
HOP-62 NSCLC = system: HOP-62 NSCLC
HS 578T breast = system: HS 578T breast
SF-539 CNS = system: SF-539 CNS
UACC-257 melanoma = system: UACC-257 melanoma
OVCAR-8 ovarian = system: OVCAR-8 ovarian
IGROV1 ovarian = system: IGROV1 ovarian
HL-60(TB) leukemia = system: HL-60(TB) leukemia
TK-10 renal = system: TK-10 renal
MCF7 breast = system: MCF7 breast
OVCAR-4 ovarian = system: OVCAR-4 ovarian
CCRF-CEM leukemia = system: CCRF-CEM leukemia
HCT-116 colon = system: HCT-116 colon
HCC-2998 colon = system: HCC-2998 colon

With `N#Cc1c(-n2c(Br)c(Br)c3cc(Br)ccc32)[nH]c2c(Br)cc(Br)cc12` as the compound, how does the GI50 (DU-145 prostate) read?
Its GI50 is 2250 nM.

What about the TGI (DU-145 prostate) of the same compound?
Its TGI is > 50000 nM.

And the GI50 (M14 melanoma)?
The GI50 was 1490 nM.

What about the TGI (M14 melanoma) of the same compound?
The TGI was 7600 nM.

What about the GI50 (EKVX NSCLC) of the same compound?
The GI50 was 2040 nM.

And the TGI (EKVX NSCLC)?
The TGI was > 50000 nM.

What about the GI50 (UACC-62 melanoma) of the same compound?
The GI50 was 1140 nM.

What about the TGI (UACC-62 melanoma) of the same compound?
The TGI was 3210 nM.

What about the GI50 (SK-MEL-5 melanoma) of the same compound?
Its GI50 is 907 nM.

And the TGI (SK-MEL-5 melanoma)?
Its TGI is 1910 nM.

What about the GI50 (SNB-75 CNS) of the same compound?
The GI50 was 954 nM.

And the TGI (SNB-75 CNS)?
The TGI was 3790 nM.

What about the GI50 (SW-620 colon) of the same compound?
Its GI50 is 1590 nM.

And the TGI (SW-620 colon)?
Its TGI is > 50000 nM.

And the GI50 (MOLT-4 leukemia)?
The GI50 was 1310 nM.

What about the TGI (MOLT-4 leukemia) of the same compound?
Its TGI is 4090 nM.

And the GI50 (MDA-MB-231 breast)?
Its GI50 is 1450 nM.

And the TGI (MDA-MB-231 breast)?
Its TGI is > 20600 nM.

What about the GI50 (ACHN renal) of the same compound?
Its GI50 is 3230 nM.

What about the TGI (ACHN renal) of the same compound?
The TGI was > 50000 nM.

What about the GI50 (SK-MEL-2 melanoma) of the same compound?
Its GI50 is 882 nM.

What about the TGI (SK-MEL-2 melanoma) of the same compound?
Its TGI is 1910 nM.

And the GI50 (K-562 leukemia)?
The GI50 was 735 nM.

And the TGI (K-562 leukemia)?
The TGI was > 50000 nM.

What about the GI50 (T-47D breast) of the same compound?
Its GI50 is 1090 nM.

What about the TGI (T-47D breast) of the same compound?
Its TGI is 6480 nM.

And the GI50 (COLO 205 colon)?
The GI50 was 1100 nM.

What about the TGI (COLO 205 colon) of the same compound?
The TGI was 3090 nM.

What about the GI50 (A549 NSCLC) of the same compound?
Its GI50 is 1730 nM.

And the TGI (A549 NSCLC)?
Its TGI is > 50000 nM.

And the GI50 (NCI-H522 lung)?
The GI50 was 788 nM.

What about the TGI (NCI-H522 lung) of the same compound?
Its TGI is 2560 nM.

And the GI50 (UO-31 renal)?
The GI50 was 5450 nM.

What about the TGI (UO-31 renal) of the same compound?
Its TGI is 16100 nM.

And the GI50 (A498 renal)?
Its GI50 is 767 nM.

And the TGI (A498 renal)?
The TGI was 2400 nM.

What about the GI50 (SF-268 CNS) of the same compound?
The GI50 was 1500 nM.

And the TGI (SF-268 CNS)?
The TGI was > 50000 nM.

And the GI50 (OVCAR-3 ovarian)?
Its GI50 is 1940 nM.

What about the TGI (OVCAR-3 ovarian) of the same compound?
Its TGI is > 50000 nM.

And the GI50 (BT-549 breast)?
The GI50 was 1160 nM.

And the TGI (BT-549 breast)?
Its TGI is 2640 nM.

What about the GI50 (MDA-MB-435) of the same compound?
Its GI50 is 2020 nM.

And the TGI (MDA-MB-435)?
Its TGI is 9380 nM.

And the GI50 (OVCAR-5 ovarian)?
Its GI50 is 2950 nM.

What about the TGI (OVCAR-5 ovarian) of the same compound?
Its TGI is > 50000 nM.

What about the GI50 (NCI-H460 lung) of the same compound?
The GI50 was 1480 nM.

And the TGI (NCI-H460 lung)?
Its TGI is 6030 nM.

And the GI50 (NCI-H226 lung)?
Its GI50 is 1140 nM.

And the TGI (NCI-H226 lung)?
The TGI was 3200 nM.

And the GI50 (KM12 colon)?
Its GI50 is 1450 nM.

What about the TGI (KM12 colon) of the same compound?
Its TGI is 6410 nM.

What about the GI50 (CAKI-1 renal) of the same compound?
Its GI50 is 1550 nM.

And the TGI (CAKI-1 renal)?
The TGI was 9730 nM.

What about the GI50 (HOP-92 NSCLC) of the same compound?
The GI50 was 383 nM.

And the TGI (HOP-92 NSCLC)?
Its TGI is 1900 nM.

And the GI50 (LOX IMVI melanoma)?
The GI50 was 5740 nM.

And the TGI (LOX IMVI melanoma)?
The TGI was 15700 nM.

And the GI50 (SNB-19 CNS)?
The GI50 was 1340 nM.

What about the TGI (SNB-19 CNS) of the same compound?
Its TGI is > 50000 nM.

What about the GI50 (SK-OV-3 ovarian) of the same compound?
The GI50 was 1410 nM.

And the TGI (SK-OV-3 ovarian)?
Its TGI is 4180 nM.

What about the GI50 (PC-3 prostate) of the same compound?
Its GI50 is 982 nM.

And the TGI (PC-3 prostate)?
Its TGI is 3990 nM.

What about the GI50 (786-0 renal) of the same compound?
The GI50 was 1580 nM.

What about the TGI (786-0 renal) of the same compound?
Its TGI is 8780 nM.

And the GI50 (HCT-15 colon)?
Its GI50 is 938 nM.

And the TGI (HCT-15 colon)?
The TGI was > 18300 nM.

And the GI50 (NCI/ADR-RES ovarian)?
The GI50 was 1200 nM.

What about the TGI (NCI/ADR-RES ovarian) of the same compound?
Its TGI is 3630 nM.

And the GI50 (SR leukemia)?
The GI50 was 1220 nM.

And the TGI (SR leukemia)?
The TGI was 6120 nM.

And the GI50 (HT29 colon)?
Its GI50 is 1480 nM.

What about the TGI (HT29 colon) of the same compound?
The TGI was 5230 nM.

What about the GI50 (SN12C renal) of the same compound?
Its GI50 is 1270 nM.

And the TGI (SN12C renal)?
The TGI was > 17900 nM.

What about the GI50 (MALME-3M melanoma) of the same compound?
Its GI50 is 1680 nM.

What about the TGI (MALME-3M melanoma) of the same compound?
The TGI was 7210 nM.

What about the GI50 (SK-MEL-28 melanoma) of the same compound?
Its GI50 is 1490 nM.

And the TGI (SK-MEL-28 melanoma)?
The TGI was 8530 nM.

What about the GI50 (SF-295 CNS) of the same compound?
The GI50 was 878 nM.

And the TGI (SF-295 CNS)?
Its TGI is 2000 nM.

And the GI50 (RXF 393 renal)?
Its GI50 is 904 nM.

And the TGI (RXF 393 renal)?
The TGI was 3480 nM.

And the GI50 (RPMI-8226 leukemia)?
Its GI50 is 859 nM.

And the TGI (RPMI-8226 leukemia)?
Its TGI is 2560 nM.

What about the GI50 (U251 CNS) of the same compound?
Its GI50 is 1190 nM.

And the TGI (U251 CNS)?
Its TGI is > 31400 nM.

And the GI50 (HOP-62 NSCLC)?
The GI50 was 1380 nM.

And the TGI (HOP-62 NSCLC)?
Its TGI is 4140 nM.

And the GI50 (HS 578T breast)?
The GI50 was 1060 nM.

What about the TGI (HS 578T breast) of the same compound?
The TGI was 3560 nM.

What about the GI50 (SF-539 CNS) of the same compound?
The GI50 was 1470 nM.

What about the TGI (SF-539 CNS) of the same compound?
The TGI was > 39600 nM.

And the GI50 (UACC-257 melanoma)?
The GI50 was 1380 nM.

What about the TGI (UACC-257 melanoma) of the same compound?
The TGI was 5740 nM.

What about the GI50 (OVCAR-8 ovarian) of the same compound?
Its GI50 is 1660 nM.

And the TGI (OVCAR-8 ovarian)?
Its TGI is > 29400 nM.

What about the GI50 (IGROV1 ovarian) of the same compound?
The GI50 was 2140 nM.

What about the TGI (IGROV1 ovarian) of the same compound?
Its TGI is > 50000 nM.

What about the GI50 (HL-60(TB) leukemia) of the same compound?
The GI50 was 1240 nM.

And the TGI (HL-60(TB) leukemia)?
The TGI was 2950 nM.

What about the GI50 (TK-10 renal) of the same compound?
The GI50 was 1590 nM.

And the TGI (TK-10 renal)?
Its TGI is 4540 nM.

What about the GI50 (MCF7 breast) of the same compound?
The GI50 was 1160 nM.

And the TGI (MCF7 breast)?
Its TGI is 7110 nM.

And the GI50 (OVCAR-4 ovarian)?
The GI50 was 1570 nM.

And the TGI (OVCAR-4 ovarian)?
Its TGI is > 50000 nM.

What about the GI50 (CCRF-CEM leukemia) of the same compound?
The GI50 was 1380 nM.

And the TGI (CCRF-CEM leukemia)?
Its TGI is > 18200 nM.

What about the GI50 (HCT-116 colon) of the same compound?
Its GI50 is 986 nM.

And the TGI (HCT-116 colon)?
Its TGI is 2990 nM.

And the GI50 (HCC-2998 colon)?
Its GI50 is 1320 nM.

And the TGI (HCC-2998 colon)?
The TGI was 15700 nM.
